Experimental findings from ChEMBL document CHEMBL6071140, “Ocotillol Derivatives Mitigate Retinal Ischemia-Reperfusion Injury by Regulating the Keap1/Nrf2/ARE Signaling Pathway” (J Med Chem, 2024) are described below.

The source made the active and inactive calls. The calls are words filed in the database; no cut-off is given here.

In data set [1] the test system is BMDM. Put plainly: Antiinflammatory activity against LPS-stimulated mouse BMDM assessed as reduction in IL6 expression at 1.25 uM preincubated for 2 hrs followed by LPS addition for 22 hrs by ELISA. The class given is functional, cell-based. As to conditions: time 24.0 hrs.
The nature of data set [2]: (§1) Antiinflammatory activity against LPS-stimulated mouse BMDM assessed as fold decrease in TNFalpha expression at 1.25 uM preincubated for 2 hrs followed by LPS addition for 22 hrs by ELISA. Format: functional. As to conditions: time 24 hrs.
In data set [3] the target is Kelch-like ECH-associated protein 1 (Homo sapiens) (UniProt Q14145). Put plainly: Binding affinity to Keap1 (unknown origin) incubated for 15 mins by MST assay. As to conditions: filed as activator.
A short description of data set [4]: Inhibition of OGD stimulated ROS accumulation in rat R28 cells assessed as fold decrease in ROS level at 1.25 uM preincubated for 24 hrs followed by OGD stimulation by DCFH-DA staining based confocal laser scanning microscopy. The class given is functional.
Data set [5] concerns R28. As to the kind of experiment: Antioxidant activity in rat R28 cells assessed as protection against OGD induced cytotoxicity by measuring cellular ATP level preincubated under OGD condition for 8 hrs followed by reoxygenation for 4 hrs by CellTiter-Lumi Plus cell viability assay. As to conditions: dose 0.1-40 µM, time 12.0 hrs. Format: functional, cell-based.
For data set [6], the system named is R28. As to the kind of experiment: Induction of Nrf2 translocation from cytosol to nucleus in OGD stimulated rat R28 cells. The class given is functional, cell-based.
Data set [7] is described as follows: (§2) Antiinflammatory activity against LPS-stimulated mouse BMDM assessed as induction of polarization toward M2 phenotype at 1.25 uM preincubated for 2 hrs followed by LPS addition for 22 hrs by DAPI staining based confocal laser scanning microscopy. Format: functional. As to conditions: time 24 hrs.
The nature of data set [8]: (§3) Upregulation of Nrf2 protein expression in OGD stimulated rat R28 cells by Western blotting analysis. Format: functional.
A short description of data set [9]: Cytotoxicity against rat R28 cells assessed as decrease in cellular ATP content incubated for 24 hrs by CellTiter-Lumi Plus cell viability assay. The class given is toxicity, cell-based. As to conditions: r28, 24 h.
Data set [10] concerns R28. As to the kind of experiment: Antioxidant activity in rat R28 cells assessed as protection against OGD induced cytotoxicity by measuring cellular ATP level at 0.1 to 40 uM preincubated under OGD condition for 8 hrs followed by reoxygenation for 4 hrs by CellTiter-Lumi Plus cell viability assay. As to conditions: dose 0.1-40 µM, time 12.0 hrs. Format: functional, cell-based.

Data set [11] can be described thus: (§4) Upregulation of HO-1 protein expression in OGD stimulated rat R28 cells by Western blotting analysis. Format: functional.
Data set [12] is described as follows: (§5) Upregulation of NQO1 protein expression in OGD stimulated rat R28 cells by Western blotting analysis. The class given is functional.
For another data set, the system named is Macrophage. Put plainly: Antiinflammatory activity against LPS-stimulated mouse macrophages assessed as reduction in NO production at 0.1 to 40 uM preincubated for 2 hrs followed by LPS addition for 22 hrs by Griess reagent based assay. Format: functional, cell-based. As to conditions: dose 0.1-40 µM, time 24.0 hrs.
Data set [13] concerns BMDM. Put plainly: Antiinflammatory activity against LPS-stimulated mouse BMDM assessed as reduction in NO production at 1.25 uM preincubated for 2 hrs followed by LPS addition for 22 hrs by Griess reagent based assay. The class given is functional, cell-based. As to conditions: time 24.0 hrs.
The subject of data set [14] is BMDM. Described as §1. Format: functional. As to conditions: time 24.0 hrs.
The test system of data set [15] is BMDM. The description is as §2. The class given is functional. As to conditions: time 24.0 hrs.
Data set [16] deals with R28. The description is as §3. The class given is functional.
Data set [17] relates to R28. The description is as §4. Format: functional.
The subject of data set [18] is R28. Described as §5. The class given is functional.

Chain of Kelch-like ECH-associated protein 1 (Homo sapiens) (Q14145 whole entry): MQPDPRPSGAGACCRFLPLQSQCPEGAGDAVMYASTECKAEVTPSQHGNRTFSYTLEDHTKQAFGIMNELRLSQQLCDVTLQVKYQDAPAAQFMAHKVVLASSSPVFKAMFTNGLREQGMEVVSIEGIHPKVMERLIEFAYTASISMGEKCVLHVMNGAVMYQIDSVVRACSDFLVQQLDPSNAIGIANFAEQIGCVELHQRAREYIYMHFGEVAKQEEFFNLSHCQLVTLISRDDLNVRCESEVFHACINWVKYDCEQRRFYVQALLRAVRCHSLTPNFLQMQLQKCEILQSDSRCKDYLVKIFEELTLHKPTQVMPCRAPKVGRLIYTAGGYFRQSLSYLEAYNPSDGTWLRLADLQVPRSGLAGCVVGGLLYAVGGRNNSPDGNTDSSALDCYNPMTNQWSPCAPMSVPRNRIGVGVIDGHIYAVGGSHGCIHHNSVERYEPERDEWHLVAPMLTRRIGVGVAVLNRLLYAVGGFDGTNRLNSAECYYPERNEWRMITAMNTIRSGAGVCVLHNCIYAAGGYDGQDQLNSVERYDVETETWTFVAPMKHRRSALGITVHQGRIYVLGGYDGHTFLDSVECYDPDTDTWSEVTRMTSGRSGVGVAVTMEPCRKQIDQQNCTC

As for `CN(CC(=O)O)CC(=O)Nc1nc2c(s1)C[C@]1(C)[C@H]3C[C@@H](O)[C@@H]4[C@@H]([C@]5(C)CC[C@@H](C(C)(C)O)O5)CC[C@@]4(C)[C@]3(C)CC[C@H]1C2(C)C`, the outcome in the data set on BMDM [1], in the data set with R28 [6], with R28 [10], with Macrophage and in the data set with BMDM [13] was Active. Besides, the “fold change (FC)” value in data set [2] was 48.3; in data set [4], 1.16. Also, the Activity result in [3] was “Dose-Dependent Effect”; in the data set with R28 [5], “Dose-Dependent Effect”; in data set [7] it was 100%; in data set [8], 96.59%; in [9] it was “Non-Toxic”; in data set [11], 77.93%. The Activity in data set [12] is given as 85.54%.

Consider `CN(CC(=O)O)CC(=O)Nc1nc2c(s1)C[C@]1(C)[C@H]3C[C@@H](O)[C@@H]4[C@@H]([C@]5(C)CC[C@H](C(C)(C)O)O5)CC[C@@]4(C)[C@]3(C)CC[C@H]1C2(C)C`, for which the outcome in the data set on BMDM [1], with BMDM [15], with R28 [10], with Macrophage and with BMDM [13] was Active. The outcome with BMDM [14], in the data set with R28 [16], in the data set with R28 [17] and in the data set with R28 [18] was inactive. Moreover, the Activity entry was “Dose-Dependent Effect” in [3], “Dose-Dependent Effect” in the data set on R28 [5] and “Non-Toxic” in data set [9]. In data set [4], the “fold change (FC)” value was 1.31.
